Experimental data reported in PubChem BioAssay AID212 (DTP/NCI, 2004).
Values joined by “and” are separate entries in the source; they are usually repeats but may differ in a detail not shown here. Equal entries are not always repeated. Results filed as inconclusive are left out.

System: BDF1 mice, colon carcinoma 38 sc, T/C %
Test: NCI In Vivo Anticancer Drug Screen. Data for tumor model Colon Carcinoma 38 (subcutaneous) in B6D2F1 (BDF1) mice
Protocol: The antitumor activity of compounds was measured in mice bearing transplantable tumors. Survival or tumor size were measured and the results are expressed as the measurement made in the treated group (T) divided by the measurement made in the vehicle treated control group (C). The tumor model used in this assay is Colon Carcinoma 38 (subcutaneous) in B6D2F1 (BDF1) mice

[1] = endpoint: median tumor weight (est.), dose: 12.0 mg/kg/injection, schedule: Q07DX002 (ip), vehicle: saline, higher = larger tumour
[2] = endpoint: median tumor weight (est.), dose: 25.0 mg/kg/injection, schedule: Q07DX002 (ip), vehicle: saline, higher = larger tumour
[3] = endpoint: median tumor weight (est.), dose: 25.0 mg/kg/injection, schedule: Q07DX002 (ip), vehicle: suspension in saline, higher = larger tumour
[4] = endpoint: median tumor weight (est.), dose: 50.0 mg/kg/injection, schedule: Q07DX002 (ip), vehicle: saline, higher = larger tumour
[5] = endpoint: median tumor weight (est.), dose: 100.0 mg/kg/injection, schedule: Q07DX002 (ip), vehicle: suspension in saline, higher = larger tumour
[6] = endpoint: median tumor weight (est.), dose: 50.0 mg/kg/injection, schedule: Q07DX002 (ip), vehicle: saline with Tween-80, higher = larger tumour
[7] = endpoint: median tumor weight (est.), dose: 200.0 mg/kg/injection, schedule: Q07DX002 (ip), vehicle: saline with Tween-80, higher = larger tumour

Q: For `COc1cc(NCc2ccc3nc(N)nc(N)c3c2C)cc(OC)c1OC`, which T/C (endpoint: median survival time, dose: 5.2 mg/kg/injection, schedule: Q04HX021 (ip), vehicle: sodium bicarbonate, higher = longer survival) is on record?
A: 183 % of control

Q: And the T/C (endpoint: median survival time, dose: 5.9 mg/kg/injection, schedule: Q06HX014 (ip), vehicle: sodium bicarbonate, higher = longer survival)?
A: 120 % of control

Q: And the T/C (endpoint: median survival time, dose: 8.4 mg/kg/injection, schedule: Q04HX021 (ip), vehicle: sodium bicarbonate, higher = longer survival)?
A: 194 % of control

Q: What about the T/C (endpoint: median survival time, dose: 8.8 mg/kg/injection, schedule: Q06HX012 (oral), vehicle: sodium bicarbonate, higher = longer survival) of the same compound?
A: 116 % of control

Q: What about the T/C (endpoint: median survival time, dose: 8.8 mg/kg/injection, schedule: Q06HX014 (ip), vehicle: sodium bicarbonate, higher = longer survival) of the same compound?
A: 175 % of control

Q: And the T/C (endpoint: median survival time, dose: 20.0 mg/kg/injection, schedule: Q06HX012 (oral), vehicle: sodium bicarbonate, higher = longer survival)?
A: 177 % of control

Q: What about the T/C (endpoint: median survival time, dose: 67.0 mg/kg/injection, schedule: Q07DX002 (ip), vehicle: sodium bicarbonate, higher = longer survival) of the same compound?
A: 157 % of control

Q: What about the T/C (endpoint: median tumor weight (est.), dose: 1.88 mg/kg/injection, schedule: Q07DX002 (ip), vehicle: sodium bicarbonate, higher = larger tumour) of the same compound?
A: 152 % of control

Q: And the T/C (endpoint: median tumor weight (est.), dose: 12.5 mg/kg/injection, schedule: Q07DX002 (ip), vehicle: water, higher = larger tumour)?
A: 121 % of control

Q: And the T/C (endpoint: median tumor weight (est.), dose: 25.0 mg/kg/injection, schedule: Q07DX002 (ip), vehicle: water, higher = larger tumour)?
A: 109 % of control

Q: And the T/C (endpoint: median tumor weight (est.), dose: 50.0 mg/kg/injection, schedule: Q07DX002 (ip), vehicle: water, higher = larger tumour)?
A: 109 % of control

Q: And the T/C (endpoint: median tumor weight (est.), dose: 53.0 mg/kg/injection, schedule: Q07DX002 (ip), vehicle: water, higher = larger tumour)?
A: 85 % of control

Q: And the T/C (endpoint: median tumor weight (est.), dose: 66.0 mg/kg/injection, schedule: Q07DX002 (ip), vehicle: water, higher = larger tumour)?
A: 90 % of control

Q: And the T/C (endpoint: median tumor weight (est.), dose: 70.0 mg/kg/injection, schedule: Q07DX002 (ip), vehicle: water, higher = larger tumour)?
A: 120 % of control

Q: And the T/C (endpoint: median tumor weight (est.), dose: 80.0 mg/kg/injection, schedule: Q07DX002 (ip), vehicle: water, higher = larger tumour)?
A: 82 % of control

Q: And the T/C (endpoint: median tumor weight (est.), dose: 99.0 mg/kg/injection, schedule: Q07DX002 (ip), vehicle: water, higher = larger tumour)?
A: 87 % of control

Q: What about the T/C (endpoint: median tumor weight (est.), dose: 100.0 mg/kg/injection, schedule: Q07DX002 (ip), vehicle: water, higher = larger tumour) of the same compound?
A: 217 % of control

Q: What about the T/C (endpoint: median tumor weight (est.), dose: 105.0 mg/kg/injection, schedule: Q07DX002 (ip), vehicle: water, higher = larger tumour) of the same compound?
A: 82 % of control

Q: What about the T/C (endpoint: median tumor weight (est.), dose: 120.0 mg/kg/injection, schedule: Q07DX002 (ip), vehicle: sodium bicarbonate, higher = larger tumour) of the same compound?
A: 4 % of control

Q: What about the T/C (endpoint: median tumor weight (est.), dose: 120.0 mg/kg/injection, schedule: Q07DX002 (ip), vehicle: water, higher = larger tumour) of the same compound?
A: 83 % of control

Q: Which results are given for `CN(N=O)C(N)=O`?
A: T/C (endpoint: median tumor weight (est.), dose: 3.12 mg/kg/injection, schedule: Q07DX002 (ip), vehicle: saline, higher = larger tumour): 95 % of control; T/C (endpoint: median tumor weight (est.), dose: 6.0 mg/kg/injection, schedule: Q07DX002 (ip), vehicle: saline, higher = larger tumour): 93 % of control; T/C (endpoint: median tumor weight (est.), dose: 6.25 mg/kg/injection, schedule: Q07DX002 (ip), vehicle: saline, higher = larger tumour): 99 % of control; T/C (endpoint: median tumor weight (est.), dose: 6.25 mg/kg/injection, schedule: Q07DX002 (ip), vehicle: suspension in saline, higher = larger tumour): 108 % of control; T/C [1]: 112 % of control; T/C (endpoint: median tumor weight (est.), dose: 12.5 mg/kg/injection, schedule: Q07DX002 (ip), vehicle: saline, higher = larger tumour): 78 % of control; T/C (endpoint: median tumor weight (est.), dose: 12.5 mg/kg/injection, schedule: Q07DX002 (ip), vehicle: suspension in saline, higher = larger tumour): 76 % of control; T/C [2]: 43 % of control and 62 % of control; T/C [3]: 55 % of control; T/C [4]: 37 % of control; T/C (endpoint: median tumor weight (est.), dose: 50.0 mg/kg/injection, schedule: Q07DX002 (ip), vehicle: suspension in saline, higher = larger tumour): 82 % of control; T/C [5]: 84 % of control

Q: How did the T/C [6] turn out when `CC(=O)Nc1cscc1NC(C)=O` was run?
A: 115 % of control

Q: And the T/C (endpoint: median tumor weight (est.), dose: 100.0 mg/kg/injection, schedule: Q07DX002 (ip), vehicle: saline with Tween-80, higher = larger tumour)?
A: 91 % of control

Q: What about the T/C [7] of the same compound?
A: 66 % of control

Q: And the T/C (endpoint: median tumor weight (est.), dose: 400.0 mg/kg/injection, schedule: Q07DX002 (ip), vehicle: saline with Tween-80, higher = larger tumour)?
A: 93 % of control

Q: What about the T/C (endpoint: median tumor weight (est.), dose: 800.0 mg/kg/injection, schedule: Q07DX002 (ip), vehicle: saline with Tween-80, higher = larger tumour) of the same compound?
A: 73 % of control

Q: For `CCOC(=O)C1=C(C#N)C2(CCC(OCc3ccccc3)CC2)C(=O)O1` (stereo not drawn), which T/C [2] is on record?
A: 47 % of control

Q: What about the T/C [3] of the same compound?
A: 87 % of control

Q: And the T/C [4]?
A: 53 % of control

Q: And the T/C (endpoint: median tumor weight (est.), dose: 100.0 mg/kg/injection, schedule: Q07DX002 (ip), vehicle: saline, higher = larger tumour)?
A: 35 % of control

Q: And the T/C [5]?
A: 115 % of control

Q: And the T/C (endpoint: median tumor weight (est.), dose: 200.0 mg/kg/injection, schedule: Q07DX002 (ip), vehicle: saline, higher = larger tumour)?
A: 73 % of control

Q: What about the T/C (endpoint: median tumor weight (est.), dose: 400.0 mg/kg/injection, schedule: Q07DX002 (ip), vehicle: saline, higher = larger tumour) of the same compound?
A: 47 % of control

Q: And the T/C (endpoint: median tumor weight (est.), dose: 400.0 mg/kg/injection, schedule: Q07DX002 (ip), vehicle: suspension in saline, higher = larger tumour)?
A: 102 % of control

Q: What about the T/C (endpoint: median tumor weight (est.), dose: 800.0 mg/kg/injection, schedule: Q07DX002 (ip), vehicle: saline, higher = larger tumour) of the same compound?
A: 64 % of control

Q: And the T/C (endpoint: median tumor weight (est.), dose: 800.0 mg/kg/injection, schedule: Q07DX002 (ip), vehicle: suspension in saline, higher = larger tumour)?
A: 102 % of control

Q: `CCCCc1ccc2nc(NC(=O)OC)[nH]c2c1` was tested. Which T/C (endpoint: median tumor weight (est.), dose: 12.5 mg/kg/injection, schedule: Q07DX002 (ip), vehicle: saline with Tween-80, higher = larger tumour) did it give?
A: 114 % of control

Q: What about the T/C (endpoint: median tumor weight (est.), dose: 25.0 mg/kg/injection, schedule: Q07DX002 (ip), vehicle: saline with Tween-80, higher = larger tumour) of the same compound?
A: 83 % of control

Q: What about the T/C [6] of the same compound?
A: 98 % of control

Q: What about the T/C [7] of the same compound?
A: 87 % of control

Q: For `[Cl][Pt+2][Cl].[NH-]C1CCC1.[NH2-]`, which T/C (endpoint: median tumor weight (est.), dose: 1.5 mg/kg/injection, schedule: Q07DX002 (ip), vehicle: saline, higher = larger tumour) is on record?
A: 95 % of control

Q: What about the T/C (endpoint: median tumor weight (est.), dose: 3.0 mg/kg/injection, schedule: Q07DX002 (ip), vehicle: saline, higher = larger tumour) of the same compound?
A: 64 % of control

Q: And the T/C [1]?
A: 43 % of control and 49 % of control

Q: What about the T/C (endpoint: median tumor weight (est.), dose: 24.0 mg/kg/injection, schedule: Q07DX002 (ip), vehicle: saline, higher = larger tumour) of the same compound?
A: 13 % of control

Q: Which T/C (endpoint: median tumor weight (est.), dose: 28.0 mg/kg/injection, schedule: Q07DX002 (ip), vehicle: Klucel (hydroxypropylcellulose) (HPC), higher = larger tumour) does the source give for `CCCCCCC/C=C/C(=O)OC1C(OC2C(OC(CCCCCCC)CC(=O)OC(CCCCCCC)CC(=O)O)OC(C)C(O)C2O)OC(C)C(O)C1O` (stereo not drawn) here?
A: 79 % of control

Q: And the T/C (endpoint: median tumor weight (est.), dose: 112.0 mg/kg/injection, schedule: Q07DX002 (ip), vehicle: Klucel (hydroxypropylcellulose) (HPC), higher = larger tumour)?
A: 123 % of control

Q: What about the T/C (endpoint: median tumor weight (est.), dose: 225.0 mg/kg/injection, schedule: Q07DX002 (ip), vehicle: Klucel (hydroxypropylcellulose) (HPC), higher = larger tumour) of the same compound?
A: 42 % of control
